# Results reported in patent US12344614B2, “Benzodiazepine derivatives as GABA a GAMMA1 PAM” (Hoffmann-La Roche Inc., priority 2021, dated 2025).
# Where two headings read alike, the source gives them in different places.
# Columns and labels:
# [1] = target: human GABAA α5β2γ1 receptor (Homo sapiens (Human), UniProt P31644+Q8N1C3); assay: Radioligand binding assay, competition for [3H]RO7239181, membranes from HEK293F cells
# Procedure: The affinity of compounds at GABAA γ1 subunit-containing receptors was measured by competition for [^3H]RO7239181 (67.3 Ci/mmol; Roche) binding to membranes from HEK293F cells (ThermoFisher R79007) expressing human (transiently transfected) receptors of composition α5β2γ1, α2β2γ1, α1β2γ1. For better protein expression of the α2 subunit-containing receptors, the 28 amino acid long signal peptide (Met1 to Ala28) of the human GABAA α2 subunit was substituted by the 31 amino acid long signal peptide (Met1 to Ser31) of human GABAA α5 subunit.
# (§1) Harvested pellets from HEK293F cells expressing the different GABAA receptor subtypes were resuspended in Mannitol Buffer pH 7.2-7.4 (Mannitol 0.29M, Triethylamine 10 mM, Acetic acid 10 mM, EDTA 1 mM plus protease inhibitors (20 tablets Complete, Roche Diagnostics Cat. No. 05 056 489 001 per liter)), washed two times and then resuspended at 1:10 to 1:15 dilution in the same buffer. Cell disruption was performed by stirring the suspension in a Parr vessel #4637 at 435 psi for 15 minutes, and then the suspensions were centrifuged at 1000×g for 15 minutes at 4° C. (Beckman Avanti J-HC; rotor JS-4.2). The supernatant (S1) was transferred in a 21 Schott flask and the pellet (P1) was resuspended with Mannitol Buffer up to 175 ml. The resuspended pellet was transferred into a 250 ml Corning centrifugal beaker and centrifuged at 1500×g for 10 minutes at 4° C. (Beckman Avanti J-HC; rotor JS-4.2). The supernatant (S1) was then transferred in the 21 Schott flask and the pellet was discarded. The supernatants (S1) were centrifuged in 500 ml Beckman polypropylene centrifugal beaker at 15′000×g for 30 minutes at 4° C. (Beckman Avanti J-20 XP; rotor JLA-10.500). The pellet (P2) was resuspended with Mannitol Buffer 1:1 and frozen at −80° C. The supernatant (S2) was centrifuged in 100 ml Beckman polypropylene centrifugal tubes at 48000×g for 50 minutes at 4° C. (Beckman Avanti J-20 XP; rotor JA-18). The supernatant (S3) was discarded and the pellet (P3) was resuspended with 1:1 Mannitol Buffer. The P2 and P3 protein concentration was determined with the BIORAD Standard assay method with bovine serum albumin as standard and measured on the NANO-Drop 1000. The membrane suspension was aliquots (500 μl per tube) and stored at −80° C. until required.
# (§2) Membrane homogenates were resuspended and polytronised (Polytron PT1200E Kinematica AG) in Potassium Phosphate 10 mM, KCl 100 mM binding buffer at pH 7.4 to a final assay concentration determined with a previous experiment.
# Radioligand binding assays were carried out in a volume of 200 μL (96-well plates) which contained 100 μL of cell membranes, [^3H]RO7239181 at a concentration of 1.5 nM (α5β2γ1) or 20-30 nM (α1β2γ1, α2β2γ1) and the test compound in the range of [0.3-10000]×10^−9 M. Nonspecific binding was defined by 10×10^−6 (α5β2γ1) and 30×10^−6 M RO7239181 and typically represented less than 5% (α5β2γ1) and less than 20% (α1β2γ1, α2β2γ1) of the total binding. Assays were incubated to equilibrium for 1 hour at 4° C. and then, membranes were filtered onto unifilter (96-well white microplate with bonded GF/C filters preincubated 20-50 minutes in 0.3% Polyethylenimine) with a Filtermate 196 harvester (Packard BioScience) and washed 4 times with cold Potassium Phosphate 10 mM pH 7.4, KCl 100 mM binding buffer. After anhydrousing, filter-retained radioactivity was detected by liquid scintillation counting. Ki values were calculated using Excel-Fit (Microsoft) and are the means of two determinations.
# Representative test results, obtained by the above described assay measuring binding affinity to HEK293 cells expressing human (h) receptors, are shown in the Table 1.
# [2] = target: human GABAA α2β2γ1 receptor (Homo sapiens (Human), UniProt P47869+Q8N1C3); assay: as above
# Procedure: The affinity of compounds at GABAA γ1 subunit-containing receptors was measured by competition for [^3H]RO7239181 (67.3 Ci/mmol; Roche) binding to membranes from HEK293F cells (ThermoFisher R79007) expressing human (transiently transfected) receptors of composition α5β2γ1, α2β2γ1, α1β2γ1.
# as §1, §2
# Assays were incubated to equilibrium for 1 hour at 4° C. and then, membranes were filtered onto unifilter (96-well white microplate with bonded GF/C filters preincubated 20-50 minutes in 0.3% Polyethylenimine) with a Filtermate 196 harvester (Packard BioScience) and washed 4 times with cold Potassium Phosphate 10 mM pH 7.4, KCl 100 mM binding buffer. After anhydrousing, filter-retained radioactivity was detected by liquid scintillation counting. Ki values were calculated using Excel-Fit (Microsoft) and are the means of two determinations.
# [3] = target: human GABAA α1β3γ2 receptor (Homo sapiens (Human), UniProt P14867+P18507); assay: Radioligand binding assay, competition for [3H]Flumazenil, HEK293F cells; conditions: for LogSel: Log[Ki α1β3γ2 (nM)/Ki α2β2γ1 (nM)]; for γ2/γ1 Selectivity Ratio: Ki α1β3γ2 (nM)/Ki α2β2γ1 (nM)
# Procedure: The affinity of compounds at GABAA γ2 subunit-containing receptors was measured by competition for [^3H]Flumazenil (81.1 Ci/mmol; Roche) binding to HEK293F cells expressing human (transiently transfected) receptors of composition α1β3γ2.
# Harvested pellets from HEK293F cells expressing the different GABAA γ2 receptor subtypes were resuspended in Mannitol Buffer pH 7.2-7.4 and processed as described above for the cells expressing the GABAA γ1 subunit-containing receptors.
# Assays were incubated to equilibrium for 1 hour at 4° C. and harvested onto GF/C uni-filters (Packard) by filtration using a Packard harvester and washing with ice-cold wash buffer (50 mM Tris; pH 7.5). After anhydrousing, filter-retained radioactivity was detected by liquid scintillation counting. Ki values were calculated using Excel-Fit (Microsoft) and are the means of two determinations.
# [4] = read-out: Ki h-GABAA α2β2γ1, [3H]RO7239181 20-30 nM, HEK293F membranes, 1 hour at 4° C., mean of two determinations
Compound,Ki [1],Ki [2],"Ki [2, 4]",Ki [3],LogSel [3],γ2/γ1 Selectivity Ratio [3]
"Cc1ccc2c(c1Cl)C(c1cc(O)ccc1F)=NCC(=O)N2C [Example 2, 6-chloro-5-(2-fluoro-5-hydroxy-phenyl)-1,7-dimethyl-3H-1,4-benzodiazepin-2-one]",0.53 nM,1.49 nM,1.49 nM,58.2 nM,1.59,–
"COC1CN(C(=O)c2nc3n(n2)-c2ccc(Cl)c(Cl)c2C(c2cc(O)ccc2F)=NC3)C1 [Example 7, [7,8-dichloro-6-(2-fluoro-5-hydroxy-phenyl)-4H-[1,2,4]triazolo[1,5-a][1,4]benzodiazepin-2-yl]-(3-methoxyazetidin-1-yl)methanone]",1.4 nM,2.22 nM,2.22 nM,34.6 nM,1.19,15.6
"Cc1cn2c(n1)[C@H](C)N=C(c1nc(O)ccc1F)c1c-2ccc(C(F)(F)F)c1Cl [Example 28, 6-[(4S)-7-chloro-2,4-dimethyl-8-(trifluoromethyl)-4H-imidazo[1,2-a][1,4]benzodiazepin-6-yl]-5-fluoro-pyridin-2-ol]",2.07 nM,5.28 nM,5.28 nM,4080 nM,2.89,772.7
"Cc1nnc2n1-c1ccc(Cl)c(Cl)c1C(c1cc(O)ccc1F)=NC2 [Example 3, 3-(7,8-dichloro-1-methyl-4H-[1,2,4]triazolo[4,3-a][1,4]benzodiazepin-6-yl)-4-fluoro-phenol]",0.36 nM,1.45 nM,1.45 nM,34.3 nM,1.37,23.7
"Cc1nnc2n1-c1ccc(C(F)(F)F)c(Cl)c1C(c1cc(O)ccc1F)=N[C@H]2C [Example 17, 4-fluoro-3-[(4S)-7-chloro-1,4-dimethyl-8-(trifluoromethyl)-4H-[1,2,4]triazolo[4,3-a][1,4]benzodiazepin-6-yl]phenol]",0.99 nM,1.75 nM,1.75 nM,68.8 nM,1.59,39.3
"Cc1nnc2n1-c1ccc(C(F)(F)F)c(Cl)c1C(c1nc(O)ccc1F)=N[C@H]2C [Example 20, 6-[(4S)-7-chloro-1,4-dimethyl-8-(trifluoromethyl)-4H-[1,2,4]triazolo[4,3-a][1,4]benzodiazepin-6-yl]-5-fluoro-pyridin-2-ol]",5.02 nM,40.1 nM,40.1 nM,11200 nM,2.45,279.6
"Oc1ccc(F)c(C2=NCc3nncn3-c3ccc(C(F)(F)F)c(Cl)c32)c1 [Example 10, 3-[7-chloro-8-(trifluoromethyl)-4H-[1,2,4]triazolo[4,3-a][1,4]benzodiazepin-6-yl]-4-fluoro-phenol]",0.27 nM,1.04 nM,1.04 nM,89.9 nM,1.94,86.5
"O=c1ccn2c(n1)CN=C(c1cc(O)ccc1F)c1c-2ccc(Cl)c1Cl [Example 6, 8,9-dichloro-7-(2-fluoro-5-hydroxy-phenyl)-5H-pyrimido[1,2-a][1,4]benzodiazepin-3-one]",0.39 nM,2.18 nM,2.18 nM,46.7 nM,1.33,21.4
"COC1CN(C(=O)c2nc3n(n2)-c2ccc(C(F)(F)F)c(Cl)c2C(c2cc(O)ccc2F)=NC3)C1 [Example 16, [7-chloro-6-(2-fluoro-5-hydroxy-phenyl)-8-(trifluoromethyl)-4H-[1,2,4]triazolo[1,5-a][1,4]benzodiazepin-2-yl]-(3-methoxyazetidin-1-yl)methanone]",1.04 nM,3.6 nM,3.6 nM,164 nM,1.66,45.6
"Cc1cnc2n1-c1ccc(C(F)(F)F)c(Cl)c1C(c1nc(O)ccc1F)=N[C@H]2C [Example 23, 6-[(4S)-7-chloro-1,4-dimethyl-8-(trifluoromethyl)-4H-imidazo[1,2-a][1,4]benzodiazepin-6-yl]-5-fluoro-pyridin-2-ol]",3.08 nM,8.88 nM,8.88 nM,8010 nM,2.96,902.4
"Cc1nnc2n1-c1ccc(Cl)c(Cl)c1C(c1cc(O)ccc1F)=N[C@H]2C [Example 4, 4-fluoro-3-[(4S)-7,8-dichloro-1,4-dimethyl-4H-[1,2,4]triazolo[4,3-a][1,4]benzodiazepin-6-yl]phenol]",0.38 nM,1.99 nM,1.99 nM,81.7 nM,1.61,41.1
"COC1CN(C(=O)c2ncn3c2CN=C(c2cc(O)ccc2F)c2c-3ccc(C(F)(F)F)c2Cl)C1 [Example 15, [7-chloro-6-(2-fluoro-5-hydroxy-phenyl)-8-(trifluoromethyl)-4H-imidazo[1,5-a][1,4]benzodiazepin-3-yl]-(3-methoxyazetidin-1-yl)methanone]",0.85 nM,4.18 nM,4.18 nM,121 nM,1.46,28.9
"C[C@@H]1N=C(c2c(F)ccc(O)c2F)c2c(ccc(Cl)c2Cl)-n2ccc(=O)nc21 [Example 18, (5S)-8,9-dichloro-7-(2,6-difluoro-3-hydroxy-phenyl)-5-methyl-5H-pyrimido[1,2-a][1,4]benzodiazepin-3-one]",1.3 nM,6.6 nM,6.6 nM,255 nM,1.59,38.7
